Literature values, collected in US11643424B2, “Cardiopathy-reducing phosphodiester lipids” (Signpath Pharma, Inc., priority 2018, dated 2023).

System: K+ current
Details: cited from earlier work

For `CCCCc1oc2ccc(NS(C)(=O)=O)cc2c1C(=O)c1ccc(OCCCN(CCCC)CCCC)cc1` [Dronedarone], the “reduction of K+ current” value is given as 69%.
